Assays:
[1] = system: db/db mice; test: Blood glucose lowering in db/db mice in vivo; settings: male db/db mice, once daily gavage for 9 days; measured at day 9 after 3 hours fasting after dosing, tail blood, Bayer Strips (FIG. 3)
Method: (§1) 7 week-old male db/db (C57BLKS/J-m+/+Lepr^db) mice (n=10) from Jackson Laboratories (Bar Harbor, Me.) were treated once daily with indicated doses of the compound by gavage feeding at each morning for 9 consecutive days. All animals were maintained under standardized conditions (12-hour light/dark cycle, 22° C.). At day 9 of the treatment, blood glucose level was measured after 3 hours fasting after dosing by taking tail blood using Bayer Strips.

[2] = system: db/db mice; test: Blood triglyceride lowering in db/db mice in vivo; settings: male db/db mice, once daily gavage for 9 days; measured at day 9 after 3 hours fasting after dosing, tail blood, Roche Strips (FIG. 4)
Method: as §1, with “triglyceride” for “glucose”, “Roche” for “Bayer”

With `COC(=O)C(Cc1ccc(OCCOc2ccc3c(c2)CCCC3)cc1)C(=O)OC` [CS-01300012, dimethyl 4-[2-(5,6,7,8-tetrahydro-2-naphthoxy)ethoxy] benzylmalonate] the blood glucose level [1] was “effective in lowering blood glucose level” and the blood triglyceride level [2] was “effective in lowering blood triglyceride level”.

— patent publication US20070142427A1, “Noncyclic 1,3-Dicarbonyl compounds as dual PPAR agonists with potent antihyperglycemic and antihyperlipidemic activity” (Shenzhen Chipscreen Biosciences Ltd., priority 2002, published 2007)
